Source: patent US12268782B2, “Preparation method of fatty acid liposome for VC encapsulation” (Jiangnan University, priority 2020, dated 2025)

Assay: Degradation of VC in deionized water over time at different temperatures (FIG. 1)
Assay type: physicochemical
Source text: Vitamin C (VC), also known as L-ascorbic acid, is a main component of common food additives and cosmetics, and can serve as a vitamin supplement and an antioxidant in cosmetics. However, VC is very unstable in neutral or alkaline aqueous solutions.

## O=C1O[C@H]([C@@H](O)CO)C(O)=C1O [VC, L-ascorbic acid]
Deionized water, 6 h, temperature higher than 50° C.
  degradation rate of VC: 80%
Initial concentration 0.27 mg/mL in deionized water, 25° C., after 12 h
  VC degrades (degradation): 29%
